Measured values published in the supplement of paper PMC10307832.

How the values were obtained:
Test in all cases: relative viability (nuclei count vs DMSO), 5 days (fraction); higher = more cells survive
Omipalisib + Bortezomib = compound: COc1ncc(-c2ccc3nccc(-c4ccnnc4)c3c2)cc1NS(=O)(=O)c1ccc(F)cc1F [Omipalisib] + CC(C)C[C@H](NC(=O)[C@H](Cc1ccccc1)NC(=O)c1cnccn1)B(O)O [Bortezomib] (partner 0.002 µM)
In short: (§1)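 Cells from lung cancer lines were seeded into 1536-well plates and, one day later, dosed by pin tool. Treatments were either a single drug or a fixed dose of an anchor drug with five library-drug doses (not always all listed) in √10 steps. After 5 days, nuclei were stained in a one-step fixation (final 0.05% Triton X-100, 1% formaldehyde, 1 ug/ml Hoechst) and counted on 4× images, and relative viability is the treated-to-vehicle nuclei ratio, as the median of duplicate plates.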

Omipalisib + OSI-027 = compound: COc1ncc(-c2ccc3nccc(-c4ccnnc4)c3c2)cc1NS(=O)(=O)c1ccc(F)cc1F [Omipalisib] + COc1cccc2cc(-c3nc([C@H]4CC[C@H](C(=O)O)CC4)n4ncnc(N)c34)[nH]c12 [OSI-027] (partner 0.5 µM)
In short: as §1

Omipalisib + Tozasertib = compound: COc1ncc(-c2ccc3nccc(-c4ccnnc4)c3c2)cc1NS(=O)(=O)c1ccc(F)cc1F [Omipalisib] + Cc1cc(Nc2cc(N3CCN(C)CC3)nc(Sc3ccc(NC(=O)C4CC4)cc3)n2)n[nH]1 [Tozasertib] (partner 0.1 µM)
In short: as §1

Omipalisib + Foretinib = compound: COc1ncc(-c2ccc3nccc(-c4ccnnc4)c3c2)cc1NS(=O)(=O)c1ccc(F)cc1F [Omipalisib] + COc1cc2c(Oc3ccc(NC(=O)C4(C(=O)Nc5ccc(F)cc5)CC4)cc3F)ccnc2cc1OCCCN1CCOCC1 [Foretinib] (partner 0.25 µM)
In short: as §1

Omipalisib + Pemetrexed = compound: COc1ncc(-c2ccc3nccc(-c4ccnnc4)c3c2)cc1NS(=O)(=O)c1ccc(F)cc1F [Omipalisib] + Nc1nc2[nH]cc(CCc3ccc(C(=O)N[C@@H](CCC(=O)O)C(=O)O)cc3)c2c(=O)[nH]1 [Pemetrexed] (partner 0.2 µM)
In short: as §1

Omipalisib + Decitabine = compound: COc1ncc(-c2ccc3nccc(-c4ccnnc4)c3c2)cc1NS(=O)(=O)c1ccc(F)cc1F [Omipalisib] + Nc1ncn([C@H]2C[C@H](O)[C@@H](CO)O2)c(=O)n1 [Decitabine] (partner 2 µM)
In short: as §1

Row | Cell Line | relative viability (Omipalisib + Bortezomib; first compound 0.0003 µM) | relative viability (Omipalisib + Bortezomib; first compound 0.003 µM) | relative viability (Omipalisib + Bortezomib; first compound 0.03 µM) | relative viability (Omipalisib + OSI-027; first compound 0.0003 µM) | relative viability (Omipalisib + OSI-027; first compound 0.003 µM) | relative viability (Omipalisib + OSI-027; first compound 0.03 µM) | relative viability (Omipalisib + Tozasertib; first compound 0.0003 µM) | relative viability (Omipalisib + Tozasertib; first compound 0.003 µM) | relative viability (Omipalisib + Tozasertib; first compound 0.03 µM) | relative viability (Omipalisib + Foretinib; first compound 0.0003 µM) | relative viability (Omipalisib + Foretinib; first compound 0.003 µM) | relative viability (Omipalisib + Foretinib; first compound 0.03 µM) | relative viability (Omipalisib + Pemetrexed; first compound 0.0003 µM) | relative viability (Omipalisib + Pemetrexed; first compound 0.003 µM) | relative viability (Omipalisib + Pemetrexed; first compound 0.03 µM) | relative viability (Omipalisib + Decitabine; first compound 0.0003 µM) | relative viability (Omipalisib + Decitabine; first compound 0.003 µM) | relative viability (Omipalisib + Decitabine; first compound 0.03 µM)
1 | HARA | 1.16 | 1.15 | 0.78 | 0.47 | 0.19 | 0.161 | 0.11 | 0.0779 | 0.0711 | 0.928 | 0.897 | 0.26 | 0.274 | 0.272 | 0.21 | 0.471 | 0.394 | 0.258
2 | HOP-62 | 0.803 | 0.617 | 0.625 | 0.93 | 0.56 | 0.576 | 0.399 | 0.356 | 0.3 | 1.09 | 1.1 | 0.946 | 0.286 | 0.354 | 0.302 | 0.211 | 0.264 | 0.199
3 | PC-3 [JPC-3] | 0.788 | 0.888 | 0.909 | 0.735 | 0.569 | 0.551 | 1.01 | 0.856 | 0.625 | 1.03 | 1.03 | 0.856 | 1.03 | 1.12 | 0.89 | 0.776 | 0.816 | 0.627
4 | NCI-H460 | 1.07 | 0.824 | 0.109 | 0.661 | 0.258 | 0.0847 | 0.476 | 0.393 | 0.0957 | 1.04 | 1.01 | 0.347 | 0.0592 | 0.0512 | 0.0757 | 0.41 | 0.286 | 0.247
5 | NCI-H1650 | 0.197 | 0.184 | 0.2 | 0.717 | 0.413 | 0.259 | 0.401 | 0.375 | 0.312 | 1.19 | 0.968 | 0.656 | 0.37 | 0.38 | 0.322 | 0.272 | 0.395 | 0.42
6 | ChaGo-K-1 | 1.06 | 0.993 | 1.04 | 0.557 | 0.374 | 0.421 | 0.242 | 0.202 | 0.167 | 0.852 | 0.75 | 0.715 | 0.273 | 0.254 | 0.255 | 0.494 | 0.448 | 0.47
7 | NCI-H23 | 0.877 | 0.684 | 0.306 | 0.62 | 0.365 | 0.321 | 0.342 | 0.295 | 0.265 | 0.851 | 0.681 | 0.461 | 0.692 | 0.44 | 0.374 | 0.308 | 0.24 | 0.243
8 | 201T | 1.13 | 1.11 | 0.777 | 0.786 | 0.494 | 0.398 | 0.883 | 0.894 | 0.473 | 1.12 | 0.864 | 0.308 | 0.342 | 0.309 | 0.266 | 0.816 | 0.809 | 0.53
